Patent US20260234159A1, “SMALL MOLECULE TREATMENT OF FATTY LIVER DISEASE AND HCC” (SCANDIEDGE THERAPEUTICS AB, priority 2023, published 2026)
Read-outs that look alike come from different tables or passages of the source.

What was measured:
HepG2 cells [1] = assay: Triglyceride (TAG) measurement assay, one week steatosis model; type: cell-based, human; details: Homo sapiens
Outline: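 HepG2 cells steatosis-induced for one week in high-glucose DMEM/10% FBS with 10 μg/ml insulin and 10 μM T0901317, media changed at days 0, 3 and 5, with 10 μM test compound throughout. Triglyceride measured colorimetrically (OD 570 nm); viability by MTT.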

HepG2 cells [2] = assay: LDH cytotoxicity assay, time dependent; type: cell-based, human; details: 10 μM, up to 4 days
Procedure: HepG2 cells were maintained and used with RPMI 1640 (R2405, Sigma-Aldrich) supplemented with 10% fetal bovine serum (F7524, Sigma-Aldrich), 1% P/S (P4333, Sigma-Aldrich). 20,000 cells per well of HepG2 cells were seeded into a 96-well plate and triplicated for MTT assay and LDH assay. Cell viability was measured by MTT assay (M6494, ThermoFisher) and cytotoxicity was measured by LDH assay kit (ab65393, abcam) by following manufacturer's instructions. Optical density (O.D) was numerated using a microplate reader (Hidex Sense Meta Plus).

[3] = In vivo toxicological study in rats: haematology; design: species or system rats of the Wistar strain
Procedure: Forty-two male and forty-two female rats of the Wistar strain were allocated to the study. Three groups of three males and three females were given doses of 30, 100 and 300 mg/kg of target compounds (Table 8). The vehicle was 1.5 w/w % HPMC, 1.5 w/w % PS80 in 10 mM PBS, pH 7 and dose volume were 5 mL/kg. The animals were acclimatised at least 14 day prior to the study and exposed to a 12 hours light, 12 hours dark light cycle. The formulations were administered via oral gavage. Administration occurred once daily in the morning for seven consecutive days. Blood for scheduled haematology and plasma chemistry were taken at necropsy. For plasma chemistry, 0.6 ml blood (lithium heparin) per animal and for haematology, 0.5 ml blood (K2EDTA) per animal. The blood and plasma were analysed using Exigo analyzer and Vetscan equipment. Blood was analysed within 60 min of sampling. On the morning of analysis, the Exigo analyzer was checked against a reference sample provided by the manufacturer, and a control sample analysis cycle was performed (Table 9).

[4] = female, 30 mg/kg oral daily 7 d
[5] = female, 100 mg/kg oral daily 7 d
[6] = female, 300 mg/kg oral daily 7 d

Question: Which activity at 10 µM (HepG2 cells [1]; 168 h, HepG2, 10 μM, one week steatosis induce media, Control 100.00, read-out: TAG (%)) does the source give for `N#Cc1c(NC(=O)c2cccc3ccccc23)sc2c1CCN(CC(=O)Nc1cccc(Br)c1)C2` [PKL-B171] here?
Answer: 21.1%

Question: What about the activity at 10 µM (HepG2 cells [1]; HepG2, 168 h, ratio between TAG content and cell viability, Control 100.0, read-out: TAG/cell viability) of the same compound?
Answer: 95.7%

Question: And the “necrotic cell death (LDH)” value (HepG2 cells [2])?
Answer: pronounced late necrotic cell death from day 3 to 4

Question: What about the GRAN [3, 4] of the same compound?
Answer: 0.77 10^9/l

Question: What about the HCT [3, 4] of the same compound?
Answer: 43.0%

Question: What about the HGB [3, 4] of the same compound?
Answer: 15.3 g/dL

Question: What about the LYM [3, 4] of the same compound?
Answer: 4.6 10^9/l

Question: And the MCH [3, 4]?
Answer: 18.9 pg

Question: And the MCHC [3, 4]?
Answer: 35.6 g/dL

Question: And the MCV [3, 4]?
Answer: 53.3 fL

Question: What about the MONO [3, 4] of the same compound?
Answer: 0.13 10^9/l

Question: And the PLT [3, 4]?
Answer: 933 10^9/l

Question: What about the RBC [3, 4] of the same compound?
Answer: 8.08 10^12/l

Question: What about the RDW % [3, 4] of the same compound?
Answer: 14.6%

Question: And the WBC [3, 4]?
Answer: 5.5 10^9/l

Question: And the GRAN [3, 5]?
Answer: 0.77 10^9/l

Question: What about the HCT [3, 5] of the same compound?
Answer: 40.8%

Question: And the HGB [3, 5]?
Answer: 14.4 g/dL

Question: What about the LYM [3, 5] of the same compound?
Answer: 4.4 10^9/l

Question: What about the MCH [3, 5] of the same compound?
Answer: 19.7 pg

Question: What about the MCHC [3, 5] of the same compound?
Answer: 35.4 g/dL

Question: And the MCV [3, 5]?
Answer: 55.5 fL

Question: What about the MONO [3, 5] of the same compound?
Answer: 0.10 10^9/l

Question: And the PLT [3, 5]?
Answer: 1106 10^9/l

Question: What about the RBC [3, 5] of the same compound?
Answer: 7.36 10^12/l

Question: And the RDW % [3, 5]?
Answer: 14.1%

Question: What about the WBC [3, 5] of the same compound?
Answer: 5.2 10^9/l

Question: And the GRAN [3, 6]?
Answer: 1.23 10^9/l

Question: And the HCT [3, 6]?
Answer: 40.5%

Question: What about the HGB [3, 6] of the same compound?
Answer: 14.4 g/dL

Question: What about the LYM [3, 6] of the same compound?
Answer: 5.7 10^9/l

Question: What about the MCH [3, 6] of the same compound?
Answer: 19.1 pg

Question: What about the MCHC [3, 6] of the same compound?
Answer: 35.7 g/dL

Question: What about the MCV [3, 6] of the same compound?
Answer: 53.5 fL

Question: What about the MONO [3, 6] of the same compound?
Answer: 0.17 10^9/l

Question: And the PLT [3, 6]?
Answer: 1027 10^9/l

Question: And the RBC [3, 6]?
Answer: 7.55 10^12/l

Question: And the RDW % [3, 6]?
Answer: 14.2%

Question: What about the WBC [3, 6] of the same compound?
Answer: 7.1 10^9/l

Question: What about the GRAN ([3]; male, 30 mg/kg oral daily 7 d) of the same compound?
Answer: 1.17 10^9/l

Question: What about the HCT ([3]; male, 30 mg/kg oral daily 7 d) of the same compound?
Answer: 40.6%

Question: And the HGB ([3]; male, 30 mg/kg oral daily 7 d)?
Answer: 14.4 g/dL

Question: And the LYM ([3]; male, 30 mg/kg oral daily 7 d)?
Answer: 6.3 10^9/l

Question: What about the MCH ([3]; male, 30 mg/kg oral daily 7 d) of the same compound?
Answer: 19.7 pg

Question: And the MCHC ([3]; male, 30 mg/kg oral daily 7 d)?
Answer: 35.4 g/dL

Question: And the MCV ([3]; male, 30 mg/kg oral daily 7 d)?
Answer: 55.5 fL

Question: And the MONO ([3]; male, 30 mg/kg oral daily 7 d)?
Answer: 0.17 10^9/l

Question: What about the PLT ([3]; male, 30 mg/kg oral daily 7 d) of the same compound?
Answer: 991 10^9/l

Question: And the RBC ([3]; male, 30 mg/kg oral daily 7 d)?
Answer: 7.31 10^12/l

Question: And the RDW % ([3]; male, 30 mg/kg oral daily 7 d)?
Answer: 14.8%

Question: And the WBC ([3]; male, 30 mg/kg oral daily 7 d)?
Answer: 7.7 10^9/l

Question: And the GRAN ([3]; male, 100 mg/kg oral daily 7 d)?
Answer: 1.30 10^9/l

Question: What about the HCT ([3]; male, 100 mg/kg oral daily 7 d) of the same compound?
Answer: 43.2%

Question: What about the HGB ([3]; male, 100 mg/kg oral daily 7 d) of the same compound?
Answer: 15.2 g/dL

Question: And the LYM ([3]; male, 100 mg/kg oral daily 7 d)?
Answer: 6.6 10^9/l

Question: And the MCH ([3]; male, 100 mg/kg oral daily 7 d)?
Answer: 20.1 pg

Question: And the MCHC ([3]; male, 100 mg/kg oral daily 7 d)?
Answer: 35.2 g/dL

Question: And the MCV ([3]; male, 100 mg/kg oral daily 7 d)?
Answer: 57.1 fL

Question: And the MONO ([3]; male, 100 mg/kg oral daily 7 d)?
Answer: 0.17 10^9/l

Question: What about the PLT ([3]; male, 100 mg/kg oral daily 7 d) of the same compound?
Answer: 981 10^9/l

Question: What about the RBC ([3]; male, 100 mg/kg oral daily 7 d) of the same compound?
Answer: 7.57 10^12/l

Question: And the RDW % ([3]; male, 100 mg/kg oral daily 7 d)?
Answer: 14.9%

Question: What about the WBC ([3]; male, 100 mg/kg oral daily 7 d) of the same compound?
Answer: 8.1 10^9/l

Question: What about the GRAN ([3]; male, 300 mg/kg oral daily 7 d) of the same compound?
Answer: 1.40 10^9/l

Question: What about the HCT ([3]; male, 300 mg/kg oral daily 7 d) of the same compound?
Answer: 43.6%

Question: And the HGB ([3]; male, 300 mg/kg oral daily 7 d)?
Answer: 15.4 g/dL

Question: And the LYM ([3]; male, 300 mg/kg oral daily 7 d)?
Answer: 7.0 10^9/l

Question: And the MCH ([3]; male, 300 mg/kg oral daily 7 d)?
Answer: 19.6 pg

Question: What about the MCHC ([3]; male, 300 mg/kg oral daily 7 d) of the same compound?
Answer: 35.4 g/dL

Question: And the MCV ([3]; male, 300 mg/kg oral daily 7 d)?
Answer: 55.4 fL

Question: What about the MONO ([3]; male, 300 mg/kg oral daily 7 d) of the same compound?
Answer: 0.20 10^9/l

Question: And the PLT ([3]; male, 300 mg/kg oral daily 7 d)?
Answer: 1115 10^9/l

Question: And the RBC ([3]; male, 300 mg/kg oral daily 7 d)?
Answer: 7.87 10^12/l

Question: What about the RDW % ([3]; male, 300 mg/kg oral daily 7 d) of the same compound?
Answer: 15.1%

Question: And the WBC ([3]; male, 300 mg/kg oral daily 7 d)?
Answer: 8.6 10^9/l
